Data on two molecules can be found in publication PMC11489226 (Archives of Toxicology, 2024).

The series deals with T1, CYP1A2 (Homo sapiens, UniProt P05177).
T1 sequence (P05177 1-516): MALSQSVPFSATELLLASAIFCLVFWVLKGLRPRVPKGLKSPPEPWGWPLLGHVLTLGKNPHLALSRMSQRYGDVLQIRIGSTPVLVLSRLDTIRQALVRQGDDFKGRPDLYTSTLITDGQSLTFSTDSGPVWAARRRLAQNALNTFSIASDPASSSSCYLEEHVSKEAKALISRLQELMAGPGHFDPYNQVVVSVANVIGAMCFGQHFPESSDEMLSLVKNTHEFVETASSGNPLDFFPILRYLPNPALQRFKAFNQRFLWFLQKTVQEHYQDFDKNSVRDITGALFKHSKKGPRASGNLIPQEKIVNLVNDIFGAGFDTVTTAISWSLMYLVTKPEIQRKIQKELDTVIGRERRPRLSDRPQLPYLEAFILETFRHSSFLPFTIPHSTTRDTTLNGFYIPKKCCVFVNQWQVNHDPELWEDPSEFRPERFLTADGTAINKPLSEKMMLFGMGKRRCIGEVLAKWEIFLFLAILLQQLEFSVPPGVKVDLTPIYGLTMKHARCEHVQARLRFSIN
As to the kind of experiment: Metabolism in transgenic HEK293 cells expressing CYP1A2 (LC-MS/MS of supernatant). Conditions: for Quantification of metabolites generated from PCB28, 52, and 101: 20 µM parent PCB, 24 h, supernatant; for Metabolite concentration formed, range across cell clones: HEK293CYP1A2 cell clones, 20 µM PCB28, 24 h. Here is the method:
For the generation of transgenic cell lines, we used semi-adherent HEK293 cells (DSMZ, ACC305, human embryonic kidney cells) which were cultured on a daily basis in DMEM medium supplemented with 10% (FCS) and 1% penicillin/streptomycin. In a first step CYP1A2, CYP2C8, CYP2C9, CYP3A4, CYP2A6, and CYP2E1 cDNA were cloned into the plasmid pcDNATM3.1/V5-His TOPO® using human liver RNA as a template and using the following primers: CYP1A2 for5′-[…]-3′, CYP1A2 rev 5′-[…]-3′; CYP2C8 for 5′-[…]-3′, CYP2C8 rev 5′-[…]-3′; CYP2C9 for 5′-[…]-3′, CYP2C9 rev 5′-[…]-3′; CYP3A4 for 5′-[…]-3′, CYP3A4 rev 5′-[…]-3′, CYP2A6 for 5′-[…]-3′, CYP2A6 rev 5′-[…]-3′; CYP2E1 for 5′-[…]-3′, CYP2E1 rev 5′-[…]-3′. Final constructs were verified with Sanger DNA sequencing and restriction digestion. For transfection, 3 × 10^6 HEK293 cells were pre-incubated in a 10 cm dish in DMEM medium with 10% FCS, but without antibiotics, for 18 to 24 h. When the cells reached approximately 70% confluency, they were transfected using TransIT-LT1 transfection reagent (Biozol, Eiching, Germany). The TransIT-LT1 reagent was warmed to room temperature and vortexed. 1.63 mL Opti-MEM, 16.25 µL plasmid DNA (1 µg/µL), and 48.75 µL TransIT-LT1 reagent were mixed and incubated for 15 to 30 min. The mixture was then added dropwise to the medium of the cells, and the cells were incubated again at 37 °C and 5% CO2. After 24 h, the medium was replaced with standard medium and geneticin was added for selection (1 mg/mL). Cells were selected for 6–8 weeks in bulk culture, and single cell clones were obtained subsequently by limiting dilution. Each clone was checked for insertion by PCR using genomic DNA as a template.
Parallel samples were run without the addition of PCBs. At a confluence of 80%, PCBs (20 μM each, dissolved in ethanol) were added and cells were incubated for 24 h before harvest of supernatants. Supernatants were diluted 1:2 with 80 μL acetate buffer 0.1 M (pH = 5.3). 100 μL of this dilution were further incubated with 100 μL of ammonium acetate buffer 0.1 M (pH = 5.3) and 5 μL of β-Glucuronidase/Arylsulfatase enzyme overnight in a drying oven at 37 °C for enzymatic hydrolysis to release conjugated compounds. 50 μL of a mix of internal standards (10 ng/mL) and 600 μL of methanol were added to the samples, then mixed by vortexing for 1 min and centrifuged for 10 min at 3400g. The individual supernatants were transferred to glass LC vials and evaporated to approximately 50 μL at 45 °C under a gentle stream of nitrogen. Finally, 0.1 mol/ L ammonium acetate buffer was added to a final volume of 100 μL and then transferred to an insert for analysis.
HEK293 cells overexpressing the respective CYP enzymes were seeded onto 6-well plates and were treated with or without 10 µM of the respective probe drug in DMEM medium for 24 hours at 37 °C and 5 % CO2. After incubation 200 µL DMEM were collected, cells were washed with PBS and adherent cells were lysed in 500 µL methanol for 20 minutes. Analytes were measured by LC-MS/MS either in methanol cell lysates or in DMEM supernatant.
50 µL of DMEM samples were protein precipitated by adding 200 µL of methanol and were centrifuged for 20 min, 17,000 g and 4°C. Supernatants were diluted in water or 40 % methanol according to dilution factor. Methanol cell lysates were diluted ½ with water and centrifuged for 20 min, 17,000 g and 4°C. 5 µL of the processed samples were injected for LC-MS analysis.

Where “and” joins values, the source holds several entries; their conditions need not be identical. Equal entries are not always repeated.

As for `Oc1cc(Cl)c(-c2ccc(Cl)cc2)cc1Cl` [4-OHCB31, 2,4′,5-trichloro-4-biphenylol], the “Metabolite concentration formed, range across cell clones” value was 0.19–0.30 µg/L and 0.69–1.11 nM. For the same molecule, the “Quantification of metabolites generated from PCB28, 52, and 101” value (from here on “Quantification of metabolites generated”) (CYP1A2, clone G5) is reported as 0,69 nM. The “Quantification of metabolites generated” value (CYP1A2, clone G8) was 1,11 nM.

Take `Oc1cc(-c2ccc(Cl)cc2)c(Cl)cc1Cl` [5-OHCB28, 2,4,4′-trichloro-5-biphenylol]: the “Metabolite concentration formed, range across cell clones” value was 1.7–2.48 µg/L and 6.22–9.07 nM. Moreover, the “Quantification of metabolites generated” value (CYP1A2, clone G5) is 6,22 nM. Besides, the “Quantification of metabolites generated” value (CYP1A2, clone G8) is 9,07 nM.
